Source: US12629406B2, “Alterations in endothelin receptors following hemorrhage and resuscitation by centhaquin” (MIDWESTERN UNIVERSITY, priority 2018, dated 2026)

Assays:
[1] = test system: ETB receptors; experiment: ETB receptor expression in tissues of hemorrhaged rats (western blot); assay type: in vivo, rat; conditions: for change in ETB receptor expression, abdominal aorta / change in ETB receptor expression, kidney medulla: compared to untreated hemorrhaged rats
Method: (§1) Induction of Hemorrhagic Shock. Hemorrhage was induced by withdrawing blood from the femoral artery at a rate of approximately 0.5 to 1 mL/min until a MAP of 35 mmHg was reached. This MAP was maintained for 30 min by further withdrawal of blood, if necessary. The hemorrhagic shock model used in the present study is a well-established rodent model of manageable pressure hemorrhage (Buehler et al. 2000; Gulati et al. 1997a; Gulati and Sen 1998). The volume of blood loss was about approximately 8.0 ml in each rat and was similar in various groups, amounting to approximately 40% of the total blood. Measured hematocrit levels were similar in various groups. The duration of blood withdrawal was approximately 15 minutes.
(§2) Experimental design. To determine the resuscitative effect of centhaquin on cardiovascular system and plasma cytokines in hemorrhagic shock, rats were randomly divided into five groups, Group 1: Sham control (Non-hemorrhaged) (n=5), Group 2: Hemorrhage with no resuscitation (n=5); Group 3: Hemorrhage followed by resuscitation with 3% hypertonic saline (vehicle) (n=5); Group 4: Hemorrhage followed by resuscitation with vehicle plus centhaquin (0.017 mg/kg) (n=5); and Group 5: Hemorrhage followed by resuscitation with vehicle plus centhaquin (0.05 mg/kg) (n=5). Resuscitation was started 30 min after induction of hemorrhagic shock as an intravenous infusion (1 mL/min) through femoral vein using an infusion pump (Harvard Apparatus Infusion/Withdrawal Pump, Millis, MA). The blood samples, for biochemical estimations, were collected at 30 minutes of resuscitation and cardiovascular parameters were monitored till 60 minutes after which the animal was sacrificed. The volume of resuscitative solution was kept equal to the volume of blood loss.
Estimation of ETA and ETB receptor expression. Expression of ETA and ETB receptors was determined using the western blotting technique (Briyal et al. 2015; Leonard and Gulati 2013) with some modifications. After completion of cardiovascular experiments animals were sacrificed and the organs (brain, heart, liver, lung, kidney and abdominal aorta) were immediately dissected out, flash frozen on dry ice, and stored at −80° C. for further analysis. The tissue was homogenized with 10×(w/v) RIPA lysis buffer (20 mM Tris-HCl pH 7.5, 120 mM NaCl, 1.0% TritonX-100, 1.0% sodium deoxycholate, 0.1% sodium dodecyl sulfate (SDS), 10% glycerol, 1 mM disodium ethylene diamine tetraacetic acid (EDTA), 1 mM ethylene glycol-bis(β-aminoethyl ether)-N,N,N′,N′-tetraacetic acid tetrasodium salt (EGTA), phosphatase inhibitors and Complete Mini Protease inhibitor cocktail tablet (Roche Diagnostics, Indianapolis, IN). Proteins were isolated in solubilized form and concentrations were measured by Folin-Ciocalteu's phenol reagent (Lowry et al. 1951). Solubilized protein (60 μg) was denatured in Laemmli sample buffer (Bio-Rad Laboratories, Hercules, CA), resolved on 10% sodium dodecyl sulfate-polyacrylamide gel electrophoresis (SDS-PAGE) and then transferred onto the nitrocellulose membrane followed by blocking the membrane with SuperBlock® Blocking Buffer in tris-buffered saline (TBS) (ThermoFisher Scientific, Hanover Park, IL). The membranes were washed three times with 1×TBS-Tween (TBST) and incubated with rabbit polyclonal anti-ETA receptor (ab85163, Abcam, Cambridge, MA, 1:1000) or anti-ETB receptor (ab117529, Abcam, Cambridge, MA, 1:1000) or mouse monoclonal anti-β-actin (a1978, Sigma-Aldrich, St. Louis, MO) antibodies, followed by horseradish peroxidase (HRP)-conjugated secondary antibodies goat anti-rabbit (sc2004, Santa Cruz Biotechnology, Dallas, TX, 1:2000) or goat anti-mouse (ab98693, Abcam, Cambridge, MA, 1:10,000) and visualized by SuperSignal® West Pico Chemiluminescent Substrate (ThermoFisher Scientific, Hanover Park, IL) using the ChemiDoc™ MP Imaging System (Bio-Rad Laboratories, Hercules, CA) and then analyzed using ImageJ (NIH) software.

[2] = Rat hemorrhagic shock, hypertonic saline resuscitation: cardiovascular response (MAP, HR, CO, SVR); assay type: in vivo; conditions: for heart rate (HR): 60 minutes after resuscitation
Method: Animals. Male Sprague-Dawley rats (340 to 380 g) (Envigo, Indianapolis, IN) were housed for at least 4 days in a room with controlled temperature (23±1° C.), humidity (50±10%) and light (6:00 A.M. to 6:00 P.M.) before being used. Food and water were made available continuously. Animal care and use for experimental procedures were approved by the Institutional Animal Care and Use Committee of the Midwestern University. All anesthetic and surgical procedures were in compliance with the guidelines established by the Animal Care Committee.
Determination of cardiovascular response. The animals were anesthetized with urethane dissolved in isotonic saline. Urethane was administered in a dose of 1.5 g per kg body weight via intraperitoneal injection. Urethane was selected as an anesthetic agent, because it produces long lasting (8-10 hours) anesthesia with minimal cardiovascular and respiratory system depression. It produces a level of surgical anesthesia characterized by preservation of cardiovascular reflexes (Maggi and Meli 1986). Briefly, anaesthetized rats were immobilized on a surgical board equipped with controlled heating pad. Blood PO2, Pco2 and pH, were maintained using a tracheotomy cannula connected to a rodent ventilator (Model 683, Harvard Apparatus Inc., Holliston, MA). The right carotid artery was exposed to measure the left ventricular performance. Surgical suture (Deknatel, Research Triangle Park, NC) was secured around the proximal end of the carotid artery and an ultra-miniature pressure-volume (P-V) catheter SPR-869 (Millar Instruments, Houston, TX) was inserted through a tiny incision made near the proximal end of the artery. The P-V terminal of the catheter was connected to MPVS-300 P-V unit through PEC-4D and CEC-4B cables and advanced into the left ventricle to obtain the P-V signals. The signals were continuously aquired (1000 S^−1) using the MPVS-300 P-V unit (AD Instruments, Mountain View, CA, USA) and PowerLab 16/30 data acquisition system (AD Instruments). MAP and HR were measured by cannulating the left femoral artery with pressure catheter SPR-320 (Millar Instruments), connected to the ML221 bridge amplifier (AD Instruments) through AEC-10C connector and the signals were acquired (1000 S^−1) using PowerLab 16/30 data acquisition system (Gulati et al. 2012; Pacher et al. 2008). The left femoral vein was cannulated using PE 50 tubing (Clay Adams, Parsipanny, NJ) and secured for resuscitation.
as §1
as §2, with “The blood samples, for biochemical estimations, were collected at 30 minutes of resuscitation and cardiovascular parameters were monitored till 60 minutes after which the animal was sacrificed. The volume of resuscitative solution was kept equal to the volume of blood loss.” left out

SMILES: Cc1cccc(N2CCN(CCc3ccc4ccccc4n3)CC2)c1 [centhaquin, 2-[2-(4-(3-methyphenyl)-1-piperazinyl)]ethyl-quinoline]
- change in ETB receptor expression, abdominal aorta ([1]; centhaquin 0.017 mg/kg): 79.7%
- change in ETB receptor expression, kidney medulla ([1]; centhaquin 0.017 mg/kg): 76.6%
- change in ETB receptor expression, abdominal aorta ([1]; centhaquin 0.05 mg/kg): 57.4%
- change in ETB receptor expression, kidney medulla ([1]; centhaquin 0.05 mg/kg): 69.4%
- change in ETB expression, abdominal aorta (summary) ([1]; dose not given): 79%
- ETB receptor expression in brain, heart, liver, lungs and kidney cortex ([1]; hemorrhage and resuscitation): no change
- shock-induced decrease (−34%) in ETB expression, renal medulla ([1]; summary, not attenuated by saline): completely attenuated
- cardiac output (CO) compared to hypertonic saline alone ([2]; 30 and 60 min post resuscitation): significantly increased
- systemic vascular resistance (SVR) ([2]; 30 and 60 minutes of resuscitation, versus post-hemorrhage): further decreased
- heart rate (HR) ([2]; centhaquin 0.017 mg/kg): 361±10 beats/min
- heart rate (HR) ([2]; centhaquin 0.05 mg/kg): 363±10 beats/min
- mean arterial pressure (MAP) post resuscitation ([2]; centhaquin 0.017 and 0.05 mg/kg, for at least 60 min, p<0.01): significant increase
- difference in HR following resuscitation ([2]; hypertonic saline or centhaquin): No significant difference
